Activity calls are given as the source filed them. No cut-off for these calls is given here.
What was measured:
[1] = Cytotoxicity against NF1 and p53 deficient mouse glioma cells assessed as growth inhibition at 2 ug/ml after 2 days; format: functional; conditions: Glioma cell, 48 h
[2] = Antioxidant activity assessed as DPPH radical scavenging activity at 50 uM; format: physicochemical
HCT-116 = test: Cytotoxicity against human HCT116 cells at 50 uM; format: functional, cell-based
PC-12 = test: Stimulation of NGF-induced neurite outgrowth in rat PC12 cells at 20 uM incubated for 48 hrs by phase contrast microscopy; format: functional, cell-based
[3] = Cytotoxicity against rat PC12 cells assessed as reduction in cell viability up to 50 uM by MTT assay; format: cell-based; conditions: pc-12
[4] = Cytotoxicity against rat PC12 cells assessed as induction of morphological changes at 20 uM after 48 hrs by phase contrast microscopy in absence of NGF; format: cell-based; conditions: pc-12, 48 h
[5] = biological target: T1, Peroxisome proliferator-activated receptor (Homo sapiens, UniProt P37231+Q07869+Q03181); test: Activation of PPAR (unknown origin) transactivation expressed in human HepG2 cells assessed as increase in transcriptional activity after 20 hrs by PPRE-luciferase reporter gene assay; format: cell-based
T1 sequence (P37231 whole entry): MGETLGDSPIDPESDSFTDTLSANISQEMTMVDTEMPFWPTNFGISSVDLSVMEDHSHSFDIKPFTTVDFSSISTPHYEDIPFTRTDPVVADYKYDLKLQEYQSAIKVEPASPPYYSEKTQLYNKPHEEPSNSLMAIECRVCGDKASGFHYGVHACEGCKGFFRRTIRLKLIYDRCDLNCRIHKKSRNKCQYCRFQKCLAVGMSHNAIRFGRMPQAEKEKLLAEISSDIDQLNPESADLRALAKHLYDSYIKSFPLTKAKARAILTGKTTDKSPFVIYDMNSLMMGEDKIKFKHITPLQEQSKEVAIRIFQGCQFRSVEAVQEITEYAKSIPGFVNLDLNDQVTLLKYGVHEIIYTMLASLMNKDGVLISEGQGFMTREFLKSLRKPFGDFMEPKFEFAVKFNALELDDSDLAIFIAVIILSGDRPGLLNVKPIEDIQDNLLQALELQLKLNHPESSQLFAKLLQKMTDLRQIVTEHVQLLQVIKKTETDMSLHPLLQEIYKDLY
T1 sequence (Q07869 whole entry): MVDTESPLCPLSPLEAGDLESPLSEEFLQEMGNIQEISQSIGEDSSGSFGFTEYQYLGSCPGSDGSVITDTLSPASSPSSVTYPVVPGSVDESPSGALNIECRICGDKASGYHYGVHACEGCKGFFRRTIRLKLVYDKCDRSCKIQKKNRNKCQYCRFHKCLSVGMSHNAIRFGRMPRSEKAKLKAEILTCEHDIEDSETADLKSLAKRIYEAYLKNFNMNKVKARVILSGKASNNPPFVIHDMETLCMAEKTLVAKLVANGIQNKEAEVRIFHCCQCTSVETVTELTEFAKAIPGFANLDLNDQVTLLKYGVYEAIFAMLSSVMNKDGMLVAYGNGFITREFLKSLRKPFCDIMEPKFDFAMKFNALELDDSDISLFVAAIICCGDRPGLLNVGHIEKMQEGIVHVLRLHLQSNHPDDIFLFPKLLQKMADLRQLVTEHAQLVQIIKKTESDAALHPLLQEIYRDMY
T1 sequence (Q03181 whole entry): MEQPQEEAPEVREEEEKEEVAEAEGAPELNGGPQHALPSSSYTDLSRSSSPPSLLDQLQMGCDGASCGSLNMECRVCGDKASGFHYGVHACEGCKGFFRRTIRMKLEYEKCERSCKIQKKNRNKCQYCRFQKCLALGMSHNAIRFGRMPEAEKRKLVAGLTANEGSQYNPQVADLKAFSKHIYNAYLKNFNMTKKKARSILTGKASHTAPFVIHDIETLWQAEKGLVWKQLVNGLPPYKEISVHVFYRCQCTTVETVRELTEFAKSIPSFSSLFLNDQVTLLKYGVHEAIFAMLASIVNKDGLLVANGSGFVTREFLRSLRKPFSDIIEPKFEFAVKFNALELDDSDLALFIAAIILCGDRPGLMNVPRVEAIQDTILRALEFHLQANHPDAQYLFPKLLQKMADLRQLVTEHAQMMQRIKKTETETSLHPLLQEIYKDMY

| Activity [2] | EC50 [5] [µM] | Structure (SMILES) | inhibition at 2 µg/mL [1] [%] | Activity (HCT-116) | Activity (PC-12) | Activity [3] | Activity [4] |
| --- | --- | --- | --- | --- | --- | --- | --- |
| Not Active |  | CC(O)/C=C/C=C/C(O)CC/C=C/C(=O)NCC(C)(C)O (centres undefined) | 41 | inactive | Active | Non-toxic |  |
| Not Active | 19.1 | CC(=O)/C=C/C=C/C(O)CC/C=C/C(=O)NCC(C)(C)O (centres undefined) | 52 | inactive | Active | Non-toxic |  |
| Not Active |  | CCOC(C)/C=C/C=C/C(O)CC/C=C/C(=O)NCC(C)(C)O (centres undefined) |  | inactive | Active | Non-toxic |  |
| Not Active | 12 | C[C@H](O)[C@@H](O)/C=C/C=C/CC/C=C/C(=O)NCC(C)(C)O | 56 | inactive | Active | Non-toxic | Non-toxic |

Second part, the compound before the results:

| Structure (SMILES) | Activity [2] | EC50 [5] [µM] | inhibition at 2 µg/mL [1] [%] | Activity (HCT-116) | Activity (PC-12) | Activity [3] | Activity [4] |
| --- | --- | --- | --- | --- | --- | --- | --- |
| CCOC(/C=C/C=C/C(C)O)CC/C=C/C(=O)NCC(C)(C)O (centres undefined) |  |  |  |  |  | Non-toxic |  |
| C[C@H](O)[C@H](O)/C=C/C=C\CC/C=C/C(=O)NCC(C)(C)O | Not Active |  | 31 | inactive | Active | Non-toxic | Non-toxic |
| CC(O)/C=C/C=C/C(=O)CC/C=C/C(=O)NCC(C)(C)O (centres undefined) |  |  |  |  |  | Non-toxic |  |
| CC(O)/C=C/C=C/C(=O)C/C=C/C(=O)NCC(C)(C)O (centres undefined) | Not Active |  |  | inactive | Active | Non-toxic |  |
